Reference: US12358954B2, “Capsid-modified rAAV vector compositions and methods therefor” (priority 2012, dated 2025)
Peptide text beside a SMILES is read from it. * marks the point of attachment. Cbz = O=C(OCc1ccccc1)*

Columns and labels:
[1] = system: monocyte-derived dendritic cells (moDCs); test: AAV2 vector transduction of monocyte-derived dendritic cells (moDCs); assay type: cell-based, human; details: 50 μM, WT scAAV2-EGFP, 48 hrs p.i.
Description: Cells and Antibodies. HEK293, HeLa and NIH3T3 cells were obtained from the American Type Culture Collection and maintained as monolayer cultures in DMEM (Invitrogen, Inc.) supplemented with 10% FBS (Sigma-Aldrich Co.) and antibiotics (Lonza, Inc.). Leukapheresis-derived peripheral blood mononuclear cells (PBMCs) (AllCells) were purified on Ficoll-Paque (GEHeathCare), resuspended in serum-free AIM-V medium (Lonza, Inc.), and semi-adherent cell fractions were incubated for 7 days with recombinant human IL-4 (500 U/mL) and GM-CSF (800 U/mL) (R&D Systems). Cell maturation was initiated with a cytokine mixture including 10 ng/mL TNF-α, 10 ng/mL IL-1, 10 ng/mL IL-6, and 1 mg/mL PGE2 (R&D Systems) for 48 hrs. Prior to EGFP expression cells were characterized for co-stimulatory molecules expression to ensure that they met the typical phenotype of mature dendritic cells (mDC) (CD80, RPE, murine IgG1; CD83, RPE, murine IgG1; CD86, FITC, murine IgG1; Invitrogen, Inc.). (Jayandharan et al., 2011)
Recombinant AAV Vector Transduction Assays In Vitro. […] Transgene expression was assessed as the total area of green fluorescence (pixel2) per visual field (mean±SD) as described previously (Markusic et al., 2011; Jayandharan et al., 2011). Analysis of variance was used to compare test results and the control, which were determined to be statistically significant.

[2] = system: HeLa cells; test: Recombinant AAV2 vector transduction assay in vitro (EGFP imaging); assay type: cell-based, human
Description: Recombinant AAV2 Vector Transduction Assays in Vitro. Approximately 1×10^5 HeLa cells were used for transductions with recombinant AAV2 vectors. The transduction efficiency was measured 48-hr post-transduction by EGFP imaging using fluorescence microscopy. Images from three to five visual fields were analyzed quantitatively by ImageJ analysis software (NIH, Bethesda, Md., USA). Transgene expression was assessed as total area of green fluorescence (pixel^2) per visual field (mean±SD). Analysis of variance (ANOVA) was used to compare between test results and the control and they were determined to be statistically significant.
The transduction efficiency of each of the tyrosine-mutant vectors was analyzed and compared with the WT scAAV2-EGFP vector in HeLa cells in vitro under identical conditions. […] Specifically, the transduction efficiency of Y444F, Y500F, Y730F vectors was ˜8- to 11-fold higher than the WT vector.
In a second study, HeLa cells, either mock-treated or treated with Tyr23, a specific inhibitor of EGFR-PTK, or MG132, a proteasome inhibitor, both known to increase the transduction efficiency of AAV vectors, were mock-infected or infected with the WT or Y730F scAAV2-EGFP vectors.

[3] = system: Huh7 cells; test: AAV3 vector transduction assay in Huh7 cells; assay type: cell-based, human; details: increasing concentrations, 2 hr
Description: (§1) AAV Vector Transduction Assays. Huh7 or HeLa cells were seeded in 96-well plates at a concentration of 5,000 cells per well in complete DMEM medium. AAV infections were performed in serum- and antibiotic-free DMEM medium. Hep293TT cells were seeded in 96-well plates at a concentration of 10,000 cells per well in complete RPMI medium. The infections were performed in serum- and antibiotic-free RPMI medium. The expression of EGFP was analyzed by direct fluorescence imaging 72 hrs' post-transduction.

[4] = system: Hep293TT cells; test: AAV3 vector transduction assay in Hep293TT cells; assay type: cell-based, human
Description: as §1

[5] = system: HeLa cells; test: scAAV2 transduction of HeLa cells with MG132 or Tyr23 (positive control); assay type: cell-based, human; details: MG132 5 μM; Tyr23 200 μM
Description: as §1
Proteasome Inhibitors Increase the Transduction Efficiency of AAV3 Vectors. […] To evaluate whether MG132 can also improve AAV3 trafficking in target cells, Huh7, a well-established human hepatocellular carcinoma cell line (Nakabayashi et al., 1982), and Hep293TT, a recently established human hepatoblastoma cell line (Chen et al., 2009), were either mock-treated or treated with increasing concentrations of MG132. […] Transgene expression was determined by fluorescence microscopy 72 hrs post-transduction.
Previous studies have also shown that inhibition of EGFR-PTK signaling by Tyrphostin 23 (Tyr23), a specific inhibitor of EGFR-PTK (May et al., 1998), modulates the Ub/proteasome pathway, which in turn, facilitates intracellular trafficking and transgene expression mediated by AAV2 vectors (Zhong et al., 2007). […] Transgene expression was determined 72 hr post-transduction.

[6] = system: HEK293 cells; test: AAV2 vector transduction assay in HEK293 cells (serine mutants, kinase inhibitors); assay type: cell-based, human; details: 50 μM, 1 hr; 1,000 vgs per cell
Description: Recombinant AAV Vector Transduction Assays In Vitro. HEK293 or monocyte-derived dendritic cells (moDCs), were transduced with AAV2 vectors with 1,000 vgs/cell or 2,000 vgs/cell respectively, and incubated for 48 hr. Alternatively, cells were pretreated with 50 μM of selective serine/threonine kinase inhibitors 2-(2-hydroxyethylamino)-6-aminohexylcarbamic acid tert-butyl ester-9-isopropylpurine (for CaMK-II), anthra[1,9-cd]pyrazol-6(2H)-one, 1,9-pyrazoloanthrone (for JNK), and 4-(4-fluorophenyl)-2-(4-methylsulfinylphenyl)-5-(4-pyridyl)1H-imidazole (for MAPK) (CK59, JNK inhibitor 2, PD 98059, Calbiochem), 1 hr before transduction. Transgene expression was assessed as the total area of green fluorescence (pixel2) per visual field (mean±SD) as described previously (Markusic et al., 2011; Jayandharan et al., 2011). Analysis of variance was used to compare test results and the control, which were determined to be statistically significant.

[7] = system: human CD34+ cells; test: Ex vivo transduction of human CD34+ cells by AAV serotype and tyrosine-mutant AAV6 vectors; assay type: cell-based
Description: Human bone marrow CD34^+ and umbilical cord blood CD34^+ cells either were purchased from All-Cells (Berkeley, Calif., USA), or were obtained under an institutional review board-approved protocol, and maintained in either StemSpan SFEM medium ([…] Technologies, Inc, Vancouver, BC, CANADA) or IMDM with 10 ng/mL rhIL6 (PeproTech), 10 ng/mL rhIL3 (PeproTech, Rocky Hill, N.J., USA) and 1 ng/mL rhSCF (R&D Systems, Minneapolis, Minn., USA). CD34^+ cell purity was determined by flow cytometry and was >90%. Mouse HSCs, which were positive for Sca-1 and c-kit and negative for lineage markers (c-kit^+, Sca-1^+, lin^−), were isolated from 4-month-old male C57BL/6 mice as previously reported with slight modification. Briefly, femurs and tibias were obtained from C57BL/6 mice, and bone marrow cells were flushed from the bones with phosphate-buffered saline (PBS). […] APC-conjugated CD117 (c-kit) antibody and Alexa Fluor 700 conjugated Sca-1 antibody (Miltenyi Biotec Inc) were used during fluorescence-activated cell sorting (FACS). […]
Ex vivo transduction of HSCs. […] Mock-infected or infected cells were infused into recipient mice immediately after infection, or examined for transgene expression by fluorescence microscopy or by flow cytometry (Accuri C6; BD Biosciences) 48-72 hrs after infection.

O=C1c2ccccc2-c2n[nH]c3cccc1c23 [JNK inhibitor, anthra[1,9-cd]pyrazol-6(2H)-one, 1,9-pyrazoloanthrone]
increase of EGFP expression levels by inhibitor pre-treatment [1]: ~2 fold

CC(C)C[C@@H](C=O)NC(=O)[C@H](CC(C)C)NC(=O)[C@H](CC(C)C)NC(=O)OCc1ccccc1 [MG132] (Cbz-Leu-Leu-Leu-aldehyde)
increase in transduction efficiency of WT scAAV2-EGFP by pretreatment [2]: ~6 fold
transduction efficiency of scAAV3 vectors after treatment [3]: dose-dependent increase
amounts of internalized viral DNA in presence or absence of inhibitor [4]: no significant difference
transduction efficiency of scAAV3 vectors after treatment ([4]; 2 hr treatment): dose-dependent increase
transduction efficiency of scAAV2 vectors after pretreatment [5]: significantly increased

C[S+]([O-])c1ccc(-c2nc(-c3ccc(F)cc3)c(-c3ccncc3)[nH]2)cc1 (centres unmarked) [p38 MAPK inhibitor, 4-(4-fluorophenyl)-2-(4-methylsulfinylphenyl)-5-(4-pyridyl)1H-imidazole]
transduction efficiency of ssAAV2 and scAAV2 vectors after inhibitor pre-treatment [6]: most effective

epidermal growth factor: epidermal growth factor
effect on transduction efficiency of AAV6 vectors in CD34+ cells [7]: no effect
